# Key:
# [1] = biological target: T1, P2X purinoceptor 7 (Homo sapiens, UniProt Q99572); assay: Equilibrium constant for P2X purinoceptor 7 expressed in HEK 293 cells at 1 uM; format: cell-based, HEK293
# T1 sequence (Q99572 whole entry): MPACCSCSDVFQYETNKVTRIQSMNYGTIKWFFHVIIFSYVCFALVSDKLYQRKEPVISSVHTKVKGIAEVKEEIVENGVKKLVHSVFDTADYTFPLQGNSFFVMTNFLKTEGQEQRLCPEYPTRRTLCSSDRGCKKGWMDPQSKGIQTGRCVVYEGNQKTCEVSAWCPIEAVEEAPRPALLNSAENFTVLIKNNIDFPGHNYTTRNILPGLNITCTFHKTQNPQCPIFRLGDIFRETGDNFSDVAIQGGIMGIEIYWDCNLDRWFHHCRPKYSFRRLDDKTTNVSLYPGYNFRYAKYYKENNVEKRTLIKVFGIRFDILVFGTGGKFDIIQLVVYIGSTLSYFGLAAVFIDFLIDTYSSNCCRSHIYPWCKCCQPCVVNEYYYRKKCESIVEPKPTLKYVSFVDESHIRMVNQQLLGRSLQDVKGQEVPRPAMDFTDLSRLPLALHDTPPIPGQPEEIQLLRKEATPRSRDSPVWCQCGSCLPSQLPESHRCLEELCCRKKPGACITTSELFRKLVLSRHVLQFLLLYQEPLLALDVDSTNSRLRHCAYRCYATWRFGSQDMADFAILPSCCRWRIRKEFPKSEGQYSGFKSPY
# [2] = biological target: T2, P2X purinoceptor 7 (Homo sapiens) (UniProt Q99572); settings: HEK293
# T2 sequence (whole entry): T1 sequence (Q99572 whole entry)
# Description: Association rate constant towards P2X purinoceptor 7 expressed in HEK 293 cells
# [3] = biological target: T1, P2X purinoceptor 7; assay: Maximum binding affinity towards P2X purinoceptor 7 expressed in HEK 293 cells; format: cell-based, HEK293
# [4] = tested on: Cell line; assay: inhibitory concentration against ATP-dependant calcium influx across plasma membrane of human monocytes; format: functional, cell-based
# [5] = biological target: T2, P2X purinoceptor 7 (Homo sapiens); settings: HEK293, 1 uM
# Description: Dissociation rate constant for P2X purinoceptor 7 expressed in HEK 293 cells at 1 uM
Kd [1] [nM],k obs [2] [s⁻¹],Kd [3] [nM],IC50 [4] [nM],K-1 [5] [min⁻¹],SMILES
3.57,0.000767,3.57,15,0.025,Cc1ccccc1N1CCN(C(=O)[C@H](Cc2ccc(OS(=O)(=O)c3cccc4cnccc34)cc2)N(C)S(=O)(=O)c2cccc3cnccc23)CC1
,,,51,,CN([C@@H](Cc1ccc(OS(=O)(=O)c2cccc3cnccc23)cc1)C(=O)N1CCN(c2ccccc2)CC1)S(=O)(=O)c1cccc2cnccc12

# From ChEMBL document CHEMBL1138640, “Synthesis, radiolabeling, and preliminary biological evaluation of [3H]-1-[(S)-N,O-bis-(isoquinolinesulfonyl)-N-methyl-tyrosyl]-4-(o-tolyl)-piperazine, a potent antagonist radioligand for the P2X7 receptor” (Bioorg Med Chem Lett, 2004)
